Experiments:
SH-SY5Y nerve cells [1] = assay: Hydrogen peroxide-damaged SH-SY5Y cell model (MTT); assay type: cell-based; conditions: summary in words
Procedure: (§1) 2.1 Method for Culturing SH-SY5Y Nerve Cells
(§2) The SH-SY5Y nerve cells were cultured in a DMEM culture medium (containing 5% of fetal calf serum in volume fraction) in an incubator containing 5% CO2 at 37° C., while subculturing every 3 to 4 days. Cells in a logarithmic phase were selected for experiments.
2.2 Method for Screening with Hydrogen Peroxide-Damaged Models
SH-SY5Y cells were inoculated at a concentration of 5×10^3 in a 96-well plate, and then cultured for 24 h, and 100 μL of a liquid culture medium containing H2O2 and a crocin-like compound was added to the 96-well plate, such that a final concentration of H2O2 was 400 μM and a final concentration of the crocin-like compound was 10 μM, 1 μM, 0.1 μM, with each concentration in triplicate, followed by culturing for 24 h. After 24 h, a supernatant was sucked out and discarded, and to each well was added 100 μL of MTT (0.5 mg/mL), followed by incubation for 4 h. A supernatant was sucked out and discarded, to each well was added 150 μL of DMSO, followed by shaking for 10 min, and a wavelength of 570 nm was selected to measure a value of absorbancy on a microplate reader^[12]. (Effective rate %=(ODcrocin-like compound−ODmodel)/(ODcontrol−ODmodel)*100).

SH-SY5Y nerve cells [2] = assay: L-glutamic acid-damaged SH-SY5Y cell model (MTT); assay type: cell-based; conditions: summary in words
Procedure: as §1, §2
2.3 Method for Screening with L-Glutamic Acid-Damaged Models
SH-SY5Y cells were inoculated at a concentration of 5×10^3 in a 96-well plate, and then cultured for 24 h, and 100 μL of a liquid culture medium containing L-glutamic acid and a crocin-like compound was added to a 96-well plate, such that a final concentration of L-glutamic acid was 160 mM and a final medication concentration of the crocin-like compound was 10 μM, 1 μM, 0.1 μM, with each concentration in triplicate, followed by culturing for 24 h. After 24 h, a supernatant was sucked out and discarded, to each well was added 100 μL of MTT (0.5 mg/mL), followed by incubation for 4 h. A supernatant was sucked out and discarded, to each well was added 150 μL of DMSO, followed by shaking for 10 min, and a wavelength of 570 nm was selected to measure a value of absorbancy on a microplate reader^[13]. (Effective rate %=(ODcrocin-like compound−ODmodel)/(ODcontrol−ODmodel)*100).

PC-12 cells = conditions: antioxidant effect (GSH increase, inhibition of peroxidized lipid, SOD retained); cited from earlier work

SMILES	protection effect on SY5Y cell damage models induced by H2O2 (SH-SY5Y nerve cells [1])	protection effect on SY5Y cell damage models induced by L-glutamic acid (SH-SY5Y nerve cells [2])	protective effect on PC-12 cells (PC-12 cells)
CC(/C=C/C=C(\C)C(=O)O)=C\C=C\C=C(C)\C=C\C=C(/C)C(=O)O[C@@H]1OC(CO[C@@H]2OC[C@@H](O)C(O)C2O)[C@@H](O)C(O)C1O (stereo partly shown) [GJ-10, neocrocin J]	more excellent protection effects	more excellent protection effects	–
C\C(C=O)=C/C=C/C(C)=C/C=C/C=C(C)/C=C/C=C(\C)C(=O)O[C@@H]1OC(CO[C@@H]2OC(CO)[C@@H](O)C(O)C2O)[C@@H](O)C(O)C1O (stereo partly shown) [GJ-9, neocrocin I]	–	more excellent protection effects	–
CC(/C=C/C=C(\C)C(=O)O[C@@H]1OC(CO[C@@H]2OC(CO)[C@@H](O)C(O)C2O)[C@@H](O)C(O)C1O)=C\C=C\C=C(C)\C=C\C=C(/C)C(=O)O[C@@H]1[C@@H](O)C[C@](O)(C(=O)O)C[C@H]1OC(=O)/C=C/c1ccc(O)c(O)c1 (stereo in doubt) [GJ-1, neocrocin B]	–	more excellent protection effects	–
COc1cc(/C=C/C(=O)OCC2O[C@@H](OCC3O[C@@H](OC(=O)/C(C)=C/C=C/C(C)=C/C=C/C=C(C)/C=C/C=C(\C)C(=O)O)C(O)C(O)[C@@H]3O)C(O)C(O)[C@@H]2O)cc(OC)c1O (stereo partly shown) [GJ-7, neocrocin F]	–	more excellent protection effects	–
CC(/C=C/C=C(\C)C(=O)O[C@@H]1O[C@H](CO[C@@H]2O[C@H](CO)[C@@H](O)[C@H](O)[C@H]2O)[C@@H](O)[C@H](O)[C@H]1O)=C\C=C\C=C(C)\C=C\C=C(/C)C(=O)O[C@@H]1O[C@H](CO[C@@H]2O[C@H](CO)[C@@H](O)[C@H](O)[C@H]2O)[C@@H](O)[C@H](O)[C@H]1O [crocin-1, crocin digentiobioside]	–	–	protective effect on PC-12 cells
COc1cc(/C=C/C(=O)OCC2O[C@@H](OCC3O[C@@H](OC(=O)/C(C)=C/C=C/C(C)=C/C=C/C=C(C)/C=C/C=C(\C)C(=O)O[C@@H]4OC(CO[C@@H]5OC(CO)[C@@H](O)C(O)C5O)[C@@H](O)C(O)C4O)C(O)C(O)[C@@H]3O)C(O)C(O)[C@@H]2O)cc(OC)c1O (stereo partly shown) [GJ-6, neocrocin G]	more excellent protection effects	more excellent protection effects	–
CCOC(=O)/C(C)=C/C=C/C(C)=C/C=C/C=C(C)/C=C/C=C(\C)C(=O)O[C@@H]1O[C@H](CO[C@@H]2O[C@H](CO)[C@@H](O)[C@H](O)[C@H]2O)[C@@H](O)[C@H](O)[C@H]1O [GJ-8, neocrocin H]	more excellent protection effects	more excellent protection effects	–

— patent US11440931B2, “Crocins compounds and uses thereof” (Jinan University, priority 2016, dated 2022)
